Source: US12410160B2 (Gilead Sciences, Inc., priority 2021, dated 2025)
Read-outs that look alike come from different tables or passages of the source.

What was measured:
[1] = molecular target: human KHK-C (Homo sapiens (Human), UniProt P50053); test: KHK Biochemical Assay (IC50), ADP-Glo, KHK-C
Procedure: (§1) The His-tagged fusion protein was expressed using BL21 (DE3) with IPTG induction and purified using Ni-NTA column followed by dialysis into final buffer containing 25 mM Tris-HCl pH 8.0, 250 mM NaCl.
(§2) KHK Biochemical Assay (IC50)
(§3) Compounds were tested for KHK enzyme inhibition in a high-throughput 384-well assay format using the ADP-Glo assay (Promega) in buffer consisting of 50 mM Hepes (pH 7.4), 140 mM KCl, 5 mM MgCl2 and 0.01% Triton-X. 0.2 nM. […] Compounds were serially diluted (1:3) in DMSO.
(§4) The compounds were pre-incubated with 5 μL of 2× final enzyme concentration for 30 minutes before adding 5 μL of 2× final concentration of ATP and fructose. The plates were incubated at room temperature for 4 hours before adding ADP-Glo reagent to quench the enzyme reaction, followed by incubation at room temperature for 1 hour. The ADP-Glo detection reagent was then added to the plates and luminescence was measured on the Envision plate reader after 1 hour.

[2] = molecular target: human KHK-A (Homo sapiens (Human), UniProt P50053); test: KHK Biochemical Assay (IC50), ADP-Glo, KHK-A; details: average of at least two separate assays
Procedure: as §1, §2, §3, §4

[3] = average of at least two separate assays
[4] = ADP-Glo, average of at least two separate assays

Sequence of human KHK-C (P50053 whole entry, the tested form may be a part): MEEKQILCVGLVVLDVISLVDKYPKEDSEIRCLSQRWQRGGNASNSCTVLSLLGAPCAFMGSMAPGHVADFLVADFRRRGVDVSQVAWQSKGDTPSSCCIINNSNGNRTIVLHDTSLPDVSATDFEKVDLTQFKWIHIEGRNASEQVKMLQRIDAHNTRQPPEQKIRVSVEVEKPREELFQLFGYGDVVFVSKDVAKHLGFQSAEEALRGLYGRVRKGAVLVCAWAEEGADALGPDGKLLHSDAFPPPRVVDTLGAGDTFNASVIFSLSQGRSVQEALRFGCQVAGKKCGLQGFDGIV
Sequence of human KHK-A (P50053 other isoform, or with tags, fused parts or gaps): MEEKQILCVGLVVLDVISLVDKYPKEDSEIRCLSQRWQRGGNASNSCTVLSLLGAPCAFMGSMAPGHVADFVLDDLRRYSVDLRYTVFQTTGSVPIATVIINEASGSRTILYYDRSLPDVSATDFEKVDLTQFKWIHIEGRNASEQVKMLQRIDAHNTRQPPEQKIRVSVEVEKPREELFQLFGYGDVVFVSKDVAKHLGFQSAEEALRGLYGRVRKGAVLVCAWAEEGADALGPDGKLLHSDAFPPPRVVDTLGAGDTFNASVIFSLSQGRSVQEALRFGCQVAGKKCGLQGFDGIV

| Molecule | IC50 [1, 3] | other results |
| --- | --- | --- |
| 2-(3-(7,7-difluoro-2-((2S,3R)-3-hydroxy-2-methylazetidin-1-yl)-6,7-dihydro-5H-cyclopenta[d]pyrimidin-4-yl)phenylsulfonimidoyl)acetonitrile [Example 628] | 8.8 nM | IC50 [2]: 10.3 nM |
| 5-(7,7-difluoro-2-((2S,3R)-3-hydroxy-2-methylazetidin-1-yl)-6,7-dihydro-5H-cyclopenta[d]pyrimidin-4-yl)-2,3-dihydrospiro[indene-1,3′-[1,4]oxazepan]-5′-one [Example 552] | 39.2 nM | – |
| C[C@H]1[C@H](O)CN1c1nc(-c2ccc(OC(F)F)c([S@](C)(=N)=O)c2)c2c(n1)C(F)(F)CC2 (single isomer, unassigned) [Example 534] | 32 nM | – |
| COc1c(F)cc(-c2nc(N3C[C@@H](O)[C@@H]3C)nc3c2CCC3(F)F)cc1[S@@](C)(=N)=O (single isomer, unassigned) [Example 536] | 6.1 nM | – |
| COc1c(F)cc(-c2nc(N3C[C@@H](O)[C@@H]3C)nc3c2CCC3(F)F)cc1[S@](C)(=N)=O (single isomer, unassigned) [Example 537] | 21.4 nM | – |
| COc1ccc(-c2nc(N3C[C@@H](O)[C@@H]3C)nc3c2CCC3(F)F)cc1[S@](=N)(=O)C1CC1 (single isomer, unassigned) [Example 540] | 13.5 nM | – |
| CS(=O)(=O)N[C@H]1COc2cc(-c3nc(N4CC[C@H]4C(F)F)nc4c3CCC4(F)F)ccc21 (single isomer, unassigned) [Example 546] | 23.9 nM | – |
| C[C@H]1[C@H](O)CN1c1nc(-c2ccc3c(c2)CC[C@]32COCC(=O)N2)c2c(n1)C(F)(F)CC2 (single isomer, unassigned) [Example 550] | 5 nM | – |
| C[C@@H]1N(c2nc(-c3ccc4c(c3)S(=O)(=O)C[C@H]4NS(C)(=O)=O)c3c(n2)C(F)(F)CC3)CC1(F)F (single isomer, unassigned) [Example 682] | 4 nM | – |
| C[C@H]1CCN1c1nc(-c2ccc([C@H](N)CS(C)(=O)=O)cc2)c2c(n1)C(F)(F)CC2 (single isomer, unassigned) [Example 775] | 4.3 nM | – |
| C[C@H]1CCN1c1nc2c(c(-c3ccc4c(cnn4C(=O)CN)c3)n1)CCC2 [Example 237, (S)-2-amino-1-(5-(2-(2-methylazetidin-1-yl)-6,7-dihydro-5H-cyclopenta[d]pyrimidin-4-yl)-1H-indazol-1-yl)ethan-1-one] | – | IC50 [1, 4]: 26.7 nM |
| C[C@H]1CCN1c1nc2c(c(-c3ccc4nn(C(=O)CN)cc4c3)n1)CCC2 [Example 238, (S)-2-amino-1-(5-(2-(2-methylazetidin-1-yl)-6,7-dihydro-5H-cyclopenta[d]pyrimidin-4-yl)-2H-indazol-2-yl)ethan-1-one] | – | IC50 [1, 4]: 68.3 nM |
| NC(=O)c1ccc(-c2nc(N3CC4(CCC4)C3)nc3c2CCC3)cc1 [Example 416, 4-(2-(2-azaspiro[3.3]heptan-2-yl)-6,7-dihydro-5H-cyclopenta[d]pyrimidin-4-yl)benzamide] | > 5000 nM | – |
| NC(=O)c1ccc(-c2nc(N3CC4(COC4)C3)nc3c2CCC3)cc1 [Example 417, 4-(2-(2-oxa-6-azaspiro[3.3]heptan-6-yl)-6,7-dihydro-5H-cyclopenta[d]pyrimidin-4-yl)benzamide] | > 5000 nM | – |
| C[C@H]1CCC(=O)N1c1nc2c(c(-c3ccc(C(N)=O)cc3)n1)CCC2 [Example 419, (S)-4-(2-(2-methyl-5-oxopyrrolidin-1-yl)-6,7-dihydro-5H-cyclopenta[d]pyrimidin-4-yl)benzamide] | > 5000 nM | – |
| C[C@H]1[C@H](O)CN1c1nc2c(c(-c3ccc4cnc(N)cc4c3)n1)CCC2 [Example 448, (2S,3R)-1-[4-(3-amino-6-isoquinolyl)-6,7-dihydro-5H-cyclopenta[d]pyrimidin-2-yl]-2-methyl-azetidin-3-ol] | 121 nM | – |
| N#CC1CCN1c1nc2c(c(-c3ccc(C(N)=O)cc3)n1)CCC2 (stereo not drawn) [Example 458, 4-(2-(2-cyanoazetidin-1-yl)-6,7-dihydro-5H-cyclopenta[d]pyrimidin-4-yl)benzamide] | 57.2 nM | – |
| C[C@H]1[C@H](O)CN1c1nc(-c2ccc3c(c2)CC[C@@]32NC(=O)NC2=O)c2c(n1)C(F)(F)CC2 [Example 485, (R)-5′-(7,7-difluoro-2-((2S,3R)-3-hydroxy-2-methylazetidin-1-yl)-6,7-dihydro-5H-cyclopenta[d]pyrimidin-4-yl)-2′,3′-dihydrospiro[imidazolidine-4,1′-indene]-2,5-dione] | 22.6 nM | – |
| COc1c(F)cc(-c2nc(N3C[C@@H](O)[C@@H]3C)nc3c2CCC3(F)F)cc1S(C)(=N)=O (stereo partly drawn) [Example 535, (5-(7,7-difluoro-2-((2S,3R)-3-hydroxy-2-methylazetidin-1-yl)-6,7-dihydro-5H-cyclopenta[d]pyrimidin-4-yl)-3-fluoro-2-methoxyphenyl)(imino)(methyl)-λ^6-sulfanone] | 15.8 nM | – |
| NC1(c2ccc(-c3nc(N4C[C@@H](O)[C@@H]4CF)nc4c3CCC4(F)F)cc2)COC1 [Example 677, (2R,3R)-1-[4-[4-(3-aminooxetan-3-yl)phenyl]-7,7-difluoro-5,6-dihydroeyelopenta[d]pyrimidin-2-yl]-2-(fluoromethyl)azetidin-3-ol] | 4.8 nM | – |
| C[C@H]1CCN1c1nc2c(c(-c3ccc(Cl)c(S(C)(=N)=O)c3)n1)CCC2 (stereo partly drawn) [Example 727] | > 500 nM | – |
| C[C@H]1[C@H](O)CN1c1nc(-c2ccc3c(c2)CC(C)(C)C3NS(C)(=O)=O)c2c(n1)C(F)(F)CC2 (stereo partly drawn) [Example 816, N-[5-[7,7-difluoro-2-[(2S,3R)-3-hydroxy-2-methyl-azetidin-1-yl]-5,6-dihydrocyclopenta[d]pyrimidin-4-yl]-2,2-dimethyl-indan-1-yl]methanesulfonamide] | – | IC50 [1, 4]: 23.4 nM |
| C[C@H]1[C@H](O)CN1c1nc(-c2ccc3c(c2)S(=N)(=O)CCO3)c2c(n1)C(F)(F)CC2 (stereo partly drawn) [Example 818, (2S,3R)-1-[7,7-difluoro-4-(4-imino-4-oxo-2,3-dihydro-1,4λ^6-benzoxathiin-6-yl)-5,6-dihydrocyclopenta[d]pyrimidin-2-yl]-2-methyl-azetidin-3-ol] | – | IC50 [1, 4]: 2.5 nM |
| C[C@H]1CCN1c1nc(N2CC3CC3C2)cc(C(F)(F)F)n1 (stereo partly drawn) [Reference Compound 1b, 3-(2-((S)-2-methylazetidin-1-yl)-6-(trifluoromethyl)pyrimidin-4-yl)-3-azabicyclo[3.1.0]hexane, reference compound] | – | IC50 [1]: 13100 nM |

The next lines start with results.

| IC50 [1, 3] | Molecule | other results |
| --- | --- | --- |
| 2.9 nM | C[C@H]1[C@H](O)CN1c1nc(-c2ccc3c(c2)C(F)(F)C[C@H]3NS(C)(=O)=O)c2c(n1)C(F)(F)CC2 (single isomer, unassigned) [Example 635] | – |
| 1.4 nM | C[C@H]1[C@H](F)CN1c1nc(-c2ccc3c(c2)S(=O)(=O)C[C@H]3NS(C)(=O)=O)c2c(n1)C(F)(F)CC2 (single isomer, unassigned) [Example 680] | – |
| 0.5 nM | C[C@@H]1N(c2nc(-c3ccc4c(c3)S(=O)(=O)C[C@@H]4NS(C)(=O)=O)c3c(n2)C(F)(F)CC3)CC1(F)F (single isomer, unassigned) [Example 681] | – |
| 2.8 nM | C[C@H]1CCN1c1nc(-c2ccc([C@@H](N)CS(C)(=O)=O)cc2)c2c(n1)C(F)(F)CC2 (single isomer, unassigned) [Example 776] | – |
| 1.2 nM | CS(=O)(=O)N[C@H]1COc2cc(-c3nc(N4C[C@@H](O)[C@@H]4CF)nc4c3CCC4(F)F)ccc21 [Example 484, N-((R)-6-(7,7-difluoro-2-((2R,3R)-2-(fluoromethyl)-3-hydroxyazetidin-1-yl)-6,7-dihydro-5H-cyclopenta[d]pyrimidin-4-yl)-2,3-dihydrobenzofuran-3-yl)methanesulfonamide] | – |
| 2.3 nM | COc1ccc(-c2nc(N3C[C@@H](O)[C@@H]3C)nc3c2CCC3(F)F)cc1S(=N)(=O)C1CC1 (stereo partly drawn) [Example 538, cyclopropyl(5-(7,7-difluoro-2-((2S,3R)-3-hydroxy-2-methylazetidin-1-yl)-6,7-dihydro-5H-cyclopenta[d]pyrimidin-4-yl)-2-methoxyphenyl)(imino)-λ^6-sulfanone] | – |
| 1.1 nM | CS(=O)(=O)N[C@H]1COc2cc(-c3nc(N4CCC4C(F)F)nc4c3CCC4(F)F)ccc21 (stereo partly drawn) [Example 544, N-((3R)-6-(2-(2-(difluoromethyl)azetidin-1-yl)-7,7-difluoro-6,7-dihydro-5H-cyclopenta[d]pyrimidin-4-yl)-2,3-dihydrobenzofuran-3-yl)methanesulfonamide] | – |
| 0.9 nM | C[C@H]1CCN1c1nc(-c2ccc3c(c2)C(NS(C)(=O)=O)CC3)c2c(n1)C(F)(F)CC2 (stereo partly drawn) [Example 607] | – |
| 2 nM | C[C@H]1[C@H](O)CN1c1nc(-c2ccc3c(c2)C(F)(F)CC3NS(C)(=O)=O)c2c(n1)C(F)(F)CC2 (stereo partly drawn) [Example 633, N-(5-(7,7-difluoro-2-((2S,3R)-3-hydroxy-2-methylazetidin-1-yl)-6,7-dihydro-5H-cyclopenta[d]pyrimidin-4-yl)-3,3-difluoro-2,3-dihydro-1H-inden-1-yl)methanesulfonamide] | – |
| 3.8 nM | C[C@H]1CCN1c1nc(-c2cccc(NS(C)(=N)=O)c2)c2c(n1)C(F)(F)CC2 (stereo partly drawn) [Example 684, 4-[3-[(amino-methyl-oxo-λ^6-sulfanylidene)amino]phenyl]-7,7-difluoro-2-[(2S)-2-methylazetidin-1-yl]-5,6-dihydrocyclopenta[d]pyrimidine] | – |
| 3.8 nM | C[C@H]1[C@H](O)CN1c1nc(-c2cc3c(c(S(C)(=N)=O)c2)OCC3)c2c(n1)C(F)(F)CC2 (stereo partly drawn) [Example 716, (5-(7,7-difluoro-2-((2S,3R)-3-hydroxy-2-methylazetidin-1-yl)-6,7-dihydro-5H-cyclopenta[d]pyrimidin-4-yl)-2,3-dihydrobenzofuran-7-yl)(imino)(methyl)-λ^6-sulfanone] | – |
